Results reported in article PMC6305410, “High-Throughput Screening for Bacterial Glycosyltransferase Inhibitors” (Frontiers in Cellular and Infection Microbiology, 2018).

Target: T1, NleB1 (Escherichia coli, UniProt Q8XBX8)
T1 construct: GST-EHEC-NleB1 in pET42a (GST/His tagged), expressed in E. coli BL21 (DE3), nickel purified; some tag cleavage noted
Settings: inhibitor; for % NleB1 inhibition (µM compound) / 10: 10 µM; for % NleB1 inhibition (µM compound) / 20: 20 µM; for % NleB1 inhibition (µM compound) / 40: 40 µM; for % NleB1 inhibition (µM compound) / 80: 80 µM; for % NleB1 inhibition (µM compound) / 160: 160 µM

Row | Structure (SMILES) | % NleB1 inhibition (µM compound) / 10 | % NleB1 inhibition (µM compound) / 20 | % NleB1 inhibition (µM compound) / 40 | % NleB1 inhibition (µM compound) / 80 | % NleB1 inhibition (µM compound) / 160
1 | O=c1cc(-c2ccccc2Cl)oc2c(NS(=O)(=O)c3cc(Cl)cc(Cl)c3O)ccc(O)c12 [KUC100066N] | 43.0% | 71.1% | 84.8% | 96.0% | 96.8%
2 | Cc1cccc(C(=O)N2CCC(=O)N([C@H](COCc3ccc(Cl)cc3)Cc3ccccc3)CC2)c1 [KUC100143N] | 35.9% | 38.0% | 39.2% | 42.0% | 63.3%
3 | O=C1CCN(S(=O)(=O)c2ccccc2)CCN1CCOCc1ccc(Cl)cc1 [KUC100988N] | 31.9% | 14.5% | 26.3% | 28.3% | 36.0%
4 | O=C1CN(Cc2ccccc2)S(=O)(=O)c2ccccc21 [KUC101184N] | 2.9% | 18.5% | 23.8% | 33.3% | 44.7%
5 | COc1ccc(C2CC(O)(c3ccccc3)Oc3c(C)ccc(C)c32)cc1 (centres unmarked) [KUC101437N] | 10.8% | 13.9% | 23.3% | 39.1% | 57.3%
6 | COc1ccc(C(CCN2CCOCC2)c2c(OC)cc(OC)c3c2OC(=O)CC3c2ccc(OC)cc2)cc1 (centres unmarked) [KUC101459N] | 14.9% | 26.2% | 9.4% | 18.8% | 44.1%
7 | CCCCCCC(=O)N1C/C=C\C(c2ccc(OC)cc2)N(Cc2ccc(F)cc2)C(=O)[C@@H]1Cc1ccccc1 (some centres unmarked) [KUC101608N] | 15.6% | 17.3% | 23.2% | 30.3% | 32.5%
8 | CCCCCCCCN1[C@@H](CC(=O)OC)c2cc(F)ccc2S1(=O)=O [KUC101907N] | 23.0% | 22.1% | 22.4% | 29.9% | 42.2%
9 | CCCCCCCCCCCCN1[C@@H](CC(=O)O)c2cc(C(F)(F)F)ccc2S1(=O)=O [KUC101994N] | 40.6% | 48.0% | 60.1% | 80.4% | 94.3%
10 | COc1cccc(N2[C@@H](CC(=O)O)c3ccc(/C=C/C(=O)O)cc3S2(=O)=O)c1 [KUC102262N] | 27.6% | 34.2% | 35.9% | 41.7% | 46.5%
11 | CCCCCCCCN1[C@@H](CC(=O)OC)c2ccc(/C=C/C(=O)OC)cc2S1(=O)=O [KUC102268N] | 25.3% | 20.8% | 27.1% | 33.3% | 27.9%
12 | CC(C)CN1CCC(=O)N(CCC#N)CC1 [KUC102485N] | 16.0% | 23.1% | 17.6% | 19.0% | 20.8%
13 | O=C(O)c1cc(-c2ccc(-c3c(-c4ccco4)noc3-c3ccccc3)cc2)nc2ccccc12 [KUC102644N] | 50.1% | 58.4% | 75.0% | 89.4% | 97.2%
14 | O=S1(=O)CCOC[C@H](c2ccccc2)N1Cc1ccc(Cl)c(Cl)c1 [KUC102739N] | 16.3% | 16.2% | 25.3% | 35.0% | 45.5%
15 | O=C(NC1CCC(=O)N(CCSc2ccccc2)CC1)OCc1ccccc1 (centres unmarked) [KUC102830N] | 16.9% | 20.9% | 21.9% | 25.7% | 38.2%
16 | O=C1CCC[C@@H]2Cc3nc4ccc(O)cc4cc3[C@@H]3CCN1[C@H]23 [KUC103038N] | 26.7% | 35.2% | 34.4% | 47.9% | 76.1%
17 | C=CCN1CC[C@@H](O)C(=C)S1(=O)=O [KUC103094N] | 19.8% | 23.8% | 19.2% | 18.2% | 18.0%

Row | Structure (SMILES) | % NleB1 inhibition (µM compound) / 10 | % NleB1 inhibition (µM compound) / 20 | % NleB1 inhibition (µM compound) / 40 | % NleB1 inhibition (µM compound) / 80 | % NleB1 inhibition (µM compound) / 160
18 | C[C@@H]1NC(=O)O[C@H]1c1ccco1 [KUC103195N] | 23.8% | 25.6% | 28.1% | 33.5% | 23.9%
19 | O=C1CS(=O)(=O)N(Cc2cccc(F)c2)c2ccc(Br)cc21 [KUC103319N] | 32.5% | 37.2% | 49.0% | 68.8% | 81.7%
20 | C[C@@H](NS(=O)(=O)c1cc(Cl)ccc1F)[C@H](O)c1ccccc1 [KUC103993N] | 27.5% | 31.8% | 31.8% | 34.5% | 37.0%
21 | COc1cc(C(C)=O)ccc1OCc1cn(CC(=O)c2ccc(O)cc2)nn1 [KUC104076N] | 32.0% | 44.9% | 45.1% | 61.1% | 75.5%
22 | O=C(Cn1cc(COc2ccccc2C(F)(F)F)nn1)c1ccc(O)cc1 [KUC104085N] | 36.1% |  | 51.8% | 63.6% | 78.4%
23 | O=C(Cn1cc(COc2cccc([N+](=O)[O-])c2)nn1)c1ccc(O)cc1 [KUC104086N] | 24.5% | 24.5% | 34.2% | 32.8% | 50.5%
24 | CC(=O)c1ccc(OCc2cn(CC(=O)c3ccc(O)cc3)nn2)c(F)c1 [KUC104088N] | 45.4% | 47.7% | 59.8% | 76.5% | 92.0%
25 | Cc1cccc(C)c1OCc1cn(CC(=O)c2ccc(O)cc2)nn1 [KUC104090N] | 36.8% | 44.9% | 53.2% | 69.2% | 85.8%
26 | O=C(Cn1cc(COc2c(F)c(F)cc(F)c2F)nn1)c1ccc(O)cc1 [KUC104092N] | 39.5% | 42.1% | 57.8% | 67.2% | 80.6%
27 | CCCC(=O)c1ccc(OCc2cn(CC(=O)c3ccc(O)cc3)nn2)cc1 [KUC104099N] | 32.9% | 42.2% | 45.2% | 62.5% | 77.5%
28 | CC(=O)Nc1ccc(OCc2cn(CC(=O)c3ccc(O)cc3)nn2)cc1 [KUC104101N] | 48.1% | 59.3% | 74.6% | 91.3% | 98.1%
29 | CCC(=O)c1ccc(OCc2cn(CC(=O)c3ccc(O)cc3)nn2)cc1 [KUC104108N] | 21.0% | 35.3% | 49.4% | 67.7% | 88.0%
30 | COc1ccc(OCc2cn(CC(=O)c3ccc(O)cc3)nn2)cc1 [KUC104109N] | 35.4% | 43.6% | 53.9% | 67.3% | 82.9%
31 | O=Cc1cccc(OCc2cn(CC(=O)c3ccc(O)cc3)nn2)c1 [KUC104114N] | 31.8% | 42.3% | 57.2% | 76.5% | 92.0%
32 | COc1ccc2cc([C@H](C)C(=O)OCc3cn(CC(=O)c4ccc(O)cc4)nn3)ccc2c1 [KUC104115N] | 40.2% | 44.0% | 48.2% | 61.4% | 78.6%
33 | CC1C(=O)N(Cc2cn(CCC3OCCCO3)nn2)CCS(=O)(=O)N1Cc1ccc(-c2cccc(N(C)C)c2)cc1 (centres unmarked) [KUC104889N] | 26.6% | 28.9% | 29.5% | 35.9% | 44.5%
